According to patent US20240067657A1, “AMIDO-SUBSTITUTED PYRIDYL COMPOUNDS AND METHODS OF USE THEREOF FOR THE TREATMENT OF HERPESVIRUSES” (Merck Sharp & Dohme LLC, priority 2020, published 2024):
Like-named read-outs stand apart in the source and are kept apart here.

Experiments:
[1] = tested on: VZV in MeWo or MRC5 cells; experiment: Viral qPCR assay VZV (V0/V1, V2/V3), EC50; format: cell-based; conditions: 10%
Procedure: (§1) Viral qPCR Assays (V0/V1)
(§2) MRC5 cells, Vero cells, and MeWo cells were obtained from ATCC and were maintained at 37° C./5% CO2/90% relative humidity in Minimal Essential Medium with 10% fetal bovine serum, […] L-glutamine, 100 units/ml penicillin and 100 ug/ml streptomycin. Assay plates were prepared by dispensing compounds dissolved in DMSO into wells of 384 well collagen-coated plates using an ECHO acoustic dispenser. Each compound was tested in a 10-point, serial 3-fold dilution. Controls included uninfected cells and infected cells treated only with DMSO. Assays were initiated by mixing selected cells, in suspension, with virus, and dispensing 50 μl/well infected cells to pre-plated compounds. Plates were incubated at 37° C./5% CO2/90% relative humidity for ˜72 hrs to permit genomic replication, and infected cells were lysed by the addition of an equal volume of lysis buffer (10 mM Tris-HCl, pH8, 50 mM KCl, 2 mM MgCl2, 0.45% NP-40, 0.45% Tween-20, and 100 μg/ml proteinase K). An aliquot of the lysate was transferred to a 384-well PCR plate and incubated at 56° C. for 1 hour and then at 95° C. for 10 min. Levels of a viral gene and of the cellular control, PPIA (Thermo Fisher Assay ID=Hs04194521_s1), were measured in separate 10 μL qPCR assays using TaqMan® Gene Expression Master Mix (Applied Biosystems), and an 7900HT Fast Real-Time PCR System with 384-Well Block Module. 7-point, serial 10-fold dilutions of a plasmid standard were run on each plate to generate a standard curve, and genome copies numbers were calculated by plotting experimental Ct onto linear regression of the standard curve. Viral genome copy numbers were normalized by cellular control copy number, and compound effects were normalized to the window defined by the controls. Calculated % effects were fit using a 4-parameter algorithm, and EC50 was reported.
(§3) Viral qPCR Assays (V2/V3)
as §2, with “gene” for “gene and of the cellular control, PPIA (Thermo Fisher Assay ID=Hs04194521_s1),”, “in” for “in separate”, “Compound effects on viral” for “Viral”, “number” for “numbers were normalized by cellular control copy number, and compound effects”, “reported. • HCMV: Strain AD169 Street was assayed in MRC-5 cells and was used at 0.05-0.1 pfu/cell. The assays were performed in either growth media or in the same media with 50% fetal bovine serum. Primer-probe set was Thermo Fisher Assay ID=AIFATFK. • VZV: Strain Street was maintained as an infected cell stock in MRC-5 cells. It was assayed in MeWo or MRC5 cells and was used at 0.04-0.1 pfu/cell. […]” for “reported.”

[2] = molecular target: T1, Human cytomegalovirus DNA polymerase (Human cytomegalovirus, UniProt P08546); experiment: HCMV polymerase assay (AlphaLISA, IC50); format: biochemical; conditions: polymerase assay of Example 190
T1 construct: made in house; host or cells: SF21 insect cells (baculovirus vector)
Procedure: (§4) Human cytomegalovirus and varicella zoster virus DNA polymerases were expressed via baculovirus vector in SF21 cells and purified. Heterodimeric nucleic acid substrate used in the herpesvirus polymerase reactions was generated by annealing a 59-mer template to a 17-mer digoxigenin-labeled primer. Polymerase (HCMV final concentration of 0.2 nM; VZV final concentration of 0.4 nM) was combined with an inhibitor compound or DMSO in assay buffer (10 mM HEPES, pH 7.5, 25 mM KCl, 25 mM NaCl, 5 mM MgCl2, 5% glycerol, 0.67 mg/ml bovine serum albuminutes, and 1 mM tris(2-carboxyethyl)phosphine), and this mixture was pre-incubated for 30 minutes at room temperature in 384-well microtiter plates. The polymerization reaction was initiated by the addition of template/primer substrate (final concentration: 1.6 nM), and dNTPs (final concentration: 24 nM dCTP, 24 nMdGTP, 16 nM dATP, 16 nM dTTP, and 0.8 nM biotin-dUTP). After 60 minutes incubation at 37° C., reactions were terminated with quench buffer (25 mM HEPES pH 7.5, 100 mM NaCl, 0.25% Tween-20, 12 mM EDTA, and 1 mg/ml bovine serum albumin). Incorporation of biotinylated UTP was detected with 2.5-5 ug/ml anti-DIG AlphaLISA acceptor beads and 5-10 ug/ml streptavidin AlphaLISA donor beads (Perkin Elmer). Compound effects were normalized to the window defined by the controls (DMSO only and pre-quenched wells), and were fit using a 4-parameter algorithm to report an IC50.

[3] = tested on: HCMV Strain AD169 in MRC-5 cells; experiment: Viral qPCR assay HCMV (V0/V1, V2/V3), EC50; format: cell-based; conditions: Human betaherpesvirus 5, AD169, MRC5, viral qPCR assay of Example 191; read-out: HCMV Cell (EC50)
Procedure: as §1, §2, §3
as §2, with “gene” for “gene and of the cellular control, PPIA (Thermo Fisher Assay ID=Hs04194521_s1),”, “in” for “in separate”, “Compound effects on viral” for “Viral”, “number” for “numbers were normalized by cellular control copy number, and compound effects”, “reported. • HCMV: Strain AD169 Street was assayed in MRC-5 cells and was used at 0.05-0.1 pfu/cell. The assays were performed in either growth media or in the same media with 50% fetal bovine serum. Primer-probe set was Thermo Fisher Assay ID=AIFATFK. • VZV: Strain Street was maintained as an infected cell stock in MRC-5 cells. It was assayed in MeWo or MRC5 cells and was used at 0.04-0.1 pfu/cell. […]” for “reported.”

[4] = molecular target: T2, varicella zoster virus DNA polymerase (Varicella-zoster virus, UniProt P09252); experiment: VZV polymerase assay (AlphaLISA, IC50); format: biochemical; conditions: polymerase assay of Example 190
T2 construct: made in house; host or cells: SF21 insect cells (baculovirus vector)
Procedure: as §4

[5] = tested on: HSV-1 Strain F in Vero or MRC5 cells; experiment: Viral qPCR assay HSV-1 (V0/V1, V2/V3), EC50; format: cell-based; conditions: Human alphaherpesvirus 1, Vero, VERO cells, 10%; read-out: HSV1 Cell (EC50) VERO 10%
Procedure: as §1, §2, §3
as §2, with “gene” for “gene and of the cellular control, PPIA (Thermo Fisher Assay ID=Hs04194521_s1),”, “in” for “in separate”, “Compound effects on viral” for “Viral”, “number” for “numbers were normalized by cellular control copy number, and compound effects”, “reported. • HCMV: Strain AD169 Street was assayed in MRC-5 cells and was used at 0.05-0.1 pfu/cell. The assays were performed in either growth media or in the same media with 50% fetal bovine serum. Primer-probe set was Thermo Fisher Assay ID=AIFATFK. • VZV: Strain Street was maintained as an infected cell stock in MRC-5 cells. It was assayed in MeWo or MRC5 cells and was used at 0.04-0.1 pfu/cell. […]” for “reported.”

[6] = Human alphaherpesvirus 3, MRC5, MRC5 cells, read-out: VZV Cell (EC50) MRC5 10%
[7] = Human alphaherpesvirus 3, MeWo, MEWO cells, read-out: VZV Cell (EC50) MEWO 10%

T1 sequence (P08546 whole entry): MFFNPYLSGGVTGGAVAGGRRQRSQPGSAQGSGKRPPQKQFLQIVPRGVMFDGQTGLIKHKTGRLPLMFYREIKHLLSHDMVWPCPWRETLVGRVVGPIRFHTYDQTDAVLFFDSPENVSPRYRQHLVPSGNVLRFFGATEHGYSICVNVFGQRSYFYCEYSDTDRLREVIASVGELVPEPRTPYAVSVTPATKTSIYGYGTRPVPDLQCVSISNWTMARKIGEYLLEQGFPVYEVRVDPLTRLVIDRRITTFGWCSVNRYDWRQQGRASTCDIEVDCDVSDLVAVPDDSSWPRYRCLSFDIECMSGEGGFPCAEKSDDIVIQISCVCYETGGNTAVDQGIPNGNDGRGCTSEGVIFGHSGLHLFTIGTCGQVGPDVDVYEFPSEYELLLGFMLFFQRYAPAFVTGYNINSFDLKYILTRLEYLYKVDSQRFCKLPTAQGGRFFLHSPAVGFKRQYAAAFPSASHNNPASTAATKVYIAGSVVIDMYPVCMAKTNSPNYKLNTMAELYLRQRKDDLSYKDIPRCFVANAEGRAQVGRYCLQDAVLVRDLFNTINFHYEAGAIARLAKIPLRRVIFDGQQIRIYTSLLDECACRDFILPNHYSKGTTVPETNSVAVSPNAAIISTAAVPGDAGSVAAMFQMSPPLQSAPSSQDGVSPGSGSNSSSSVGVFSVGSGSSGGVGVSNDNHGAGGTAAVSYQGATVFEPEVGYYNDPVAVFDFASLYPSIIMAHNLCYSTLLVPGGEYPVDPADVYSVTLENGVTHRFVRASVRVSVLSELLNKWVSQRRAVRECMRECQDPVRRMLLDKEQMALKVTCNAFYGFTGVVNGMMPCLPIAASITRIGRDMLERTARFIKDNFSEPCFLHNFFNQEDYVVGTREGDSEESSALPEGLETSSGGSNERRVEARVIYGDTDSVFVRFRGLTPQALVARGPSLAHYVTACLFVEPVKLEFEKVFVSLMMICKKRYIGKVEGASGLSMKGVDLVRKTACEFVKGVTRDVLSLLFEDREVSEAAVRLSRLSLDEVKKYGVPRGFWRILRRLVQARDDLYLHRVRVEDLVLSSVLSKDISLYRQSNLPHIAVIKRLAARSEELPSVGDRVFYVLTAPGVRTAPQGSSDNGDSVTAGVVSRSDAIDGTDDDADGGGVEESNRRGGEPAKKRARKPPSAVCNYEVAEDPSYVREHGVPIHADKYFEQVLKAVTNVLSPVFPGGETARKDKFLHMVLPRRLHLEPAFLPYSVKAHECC
T2 sequence (P09252 whole entry): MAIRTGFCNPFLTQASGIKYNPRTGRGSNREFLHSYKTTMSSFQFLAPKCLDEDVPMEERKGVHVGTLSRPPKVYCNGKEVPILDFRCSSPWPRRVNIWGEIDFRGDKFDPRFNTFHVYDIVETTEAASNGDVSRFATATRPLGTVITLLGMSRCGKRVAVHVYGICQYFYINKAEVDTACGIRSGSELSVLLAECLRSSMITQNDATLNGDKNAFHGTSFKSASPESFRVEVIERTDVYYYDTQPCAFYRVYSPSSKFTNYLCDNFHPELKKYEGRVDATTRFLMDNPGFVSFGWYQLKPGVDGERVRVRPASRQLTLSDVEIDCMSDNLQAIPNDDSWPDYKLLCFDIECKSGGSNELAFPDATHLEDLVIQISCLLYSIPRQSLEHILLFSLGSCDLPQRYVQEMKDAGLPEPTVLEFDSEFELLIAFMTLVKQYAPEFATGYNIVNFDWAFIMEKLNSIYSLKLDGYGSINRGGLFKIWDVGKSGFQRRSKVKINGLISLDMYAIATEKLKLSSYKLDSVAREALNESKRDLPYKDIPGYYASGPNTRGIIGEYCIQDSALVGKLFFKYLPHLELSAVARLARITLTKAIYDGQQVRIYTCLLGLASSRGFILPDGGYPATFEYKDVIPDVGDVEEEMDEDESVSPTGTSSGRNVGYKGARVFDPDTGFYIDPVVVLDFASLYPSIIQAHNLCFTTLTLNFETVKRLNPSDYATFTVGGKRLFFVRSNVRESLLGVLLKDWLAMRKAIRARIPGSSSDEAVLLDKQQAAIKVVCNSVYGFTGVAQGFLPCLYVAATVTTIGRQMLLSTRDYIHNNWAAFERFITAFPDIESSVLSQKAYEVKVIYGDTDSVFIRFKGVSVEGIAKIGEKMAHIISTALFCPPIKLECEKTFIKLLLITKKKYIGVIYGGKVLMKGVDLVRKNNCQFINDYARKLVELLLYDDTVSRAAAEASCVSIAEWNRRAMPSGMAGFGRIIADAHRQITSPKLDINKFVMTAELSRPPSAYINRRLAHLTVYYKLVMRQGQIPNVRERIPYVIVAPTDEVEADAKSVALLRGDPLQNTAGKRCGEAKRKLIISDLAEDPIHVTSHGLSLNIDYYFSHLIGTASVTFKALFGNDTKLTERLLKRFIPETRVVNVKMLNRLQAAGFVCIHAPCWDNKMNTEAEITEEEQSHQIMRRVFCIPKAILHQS

| Compound | EC50 [1, 6] [nM] | IC50 [2] [nM] | EC50 [3] [nM] | IC50 [4] [nM] | EC50 [5] [nM] | EC50 [1, 7] [nM] |
| --- | --- | --- | --- | --- | --- | --- |
| CC1(O)CCN(Cc2cnc(C(=O)NCc3ccc(Cl)cc3)cc2O[C@H]2CCN3C(=O)OC[C@@H]3C2)C1 (mixture of isomers) [Compound 134] | 3970 | 124 | 1930 | 95.4 | 5850 | – |
| CO[C@H]1CN(Cc2cnc(C(=O)NCc3ccc(Cl)cc3)cc2O[C@H]2CCN3C(=O)OC[C@@H]3C2)[C@@H]1C (mixture of isomers) [Compound 137] | 1420 | 35 | 575 | 36.7 | 602 | – |
| O=C(NCc1ccc(Cl)cc1)c1cc(O[C@H]2CCN3C(=O)OC[C@@H]3C2)c(CN2CCCC(O)C2)cn1 (mixture of isomers) [Compound 140] | 2560 | 62 | 855 | 54.6 | 4320 | – |
| O=C(NCc1ccc(Cl)cc1)c1cc(O[C@H]2CCN3C(=O)OC[C@@H]3C2)c(CN2CCC3OCCC32)cn1 (mixture of isomers) [Compound 142] | 490 | 17.8 | 243 | 12.9 | 453 | – |
| CC(C)CCn1cc(-c2cnc(C(=O)NCc3ccc(Cl)cc3)cc2O[C@H]2CCN3C(=O)OC[C@@H]3C2)cn1 (racemic) [Compound 9] | – | 147 | 582 | 114 | 1130 | 859 |
| CN(C)CCn1cc(-c2cnc(C(=O)NCc3ccc(Cl)cc3)cc2O[C@H]2CCN3C(=O)OC[C@@H]3C2)cn1 (racemic) [Compound 10] | – | 80.1 | 178 | 41.7 | 1360 | 375 |
| CC(C)Cn1cc(-c2cnc(C(=O)NCc3ccc(Cl)cc3)cc2O[C@H]2CCN3C(=O)OC[C@@H]3C2)cn1 (racemic) [Compound 11] | – | 70.5 | 685 | 51.2 | 813 | 712 |
| CC(C)(C)n1cc(-c2cnc(C(=O)NCc3ccc(Cl)cc3)cc2O[C@H]2CCN3C(=O)OC[C@@H]3C2)cn1 (racemic) [Compound 12] | – | 70.5 | 1160 | 69.6 | 882 | 977 |
| CCCn1cc(-c2cnc(C(=O)NCc3ccc(Cl)cc3)cc2O[C@H]2CCN3C(=O)OC[C@@H]3C2)cn1 (racemic) [Compound 13] | – | 50.9 | 363 | 38 | 388 | 601 |
